Laboratory results published in US20240308960A1 (Sumitomo Pharma Co., Ltd., priority 2021, published 2024).

Target: T1, Human orexin receptor type 2 (Homo sapiens, UniProt O43614)
T1 sequence (O43614 1-444): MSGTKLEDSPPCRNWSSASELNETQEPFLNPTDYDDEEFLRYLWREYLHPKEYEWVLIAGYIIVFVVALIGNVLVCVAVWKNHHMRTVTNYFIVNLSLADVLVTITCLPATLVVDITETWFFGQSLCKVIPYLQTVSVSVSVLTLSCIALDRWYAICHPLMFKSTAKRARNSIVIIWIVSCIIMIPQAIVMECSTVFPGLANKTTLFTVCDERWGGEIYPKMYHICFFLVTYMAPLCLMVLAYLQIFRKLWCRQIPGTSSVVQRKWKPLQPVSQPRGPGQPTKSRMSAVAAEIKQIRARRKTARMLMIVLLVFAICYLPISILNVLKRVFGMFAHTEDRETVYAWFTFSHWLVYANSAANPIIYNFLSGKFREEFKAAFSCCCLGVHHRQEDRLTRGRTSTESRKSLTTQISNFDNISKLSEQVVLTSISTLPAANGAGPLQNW
Experiment: Test Example 1: agonist activity for orexin receptor type 2 (aequorin luminescence, intracellular calcium mobilization)
Conditions: compound 10 μm; CHO cells transiently expressing human orexin receptor type 2 and apoaequorin; relative percentage of luminescence for the luminescence (100%) of Orexin A (100 μM)
Experimental: Human orexin receptor type 2 and apoaequorin were transiently expressed in CHO cells, and the agonist activity was evaluated based on intracellular calcium mobilization with ligand stimulation. The CHO cells transiently-expressed human orexin receptor type 2 and apoaequorin were seeded on a 384-well plate by 2,000 cells/well, and then incubated for 16-22 hours. After the plate was returned to room temperature, Coelenterazine hcp (final concentration: 1 μM) was added to the plate, and the plate was allowed to stand at room temperature for 2 hours. And then, Orexin A or each test compound was added to the plate, and the luminescence of the cells was measured with FDSS7000 (Hamamatsu Photonics K. K.), wherein Orexin A and each test compound were dissolved in DMSO (final concentration: 0.1%), and diluted with a buffer (Hanks, 20 mM HEPES, 0.1% BSA). The agonist activity of each test compound for orexin receptor type 2 was calculated as relative percentage of luminescence for the luminescence (100%) of Orexin A (100 μM).

| SMILES | Agonist Activity (%) |
| --- | --- |
| CC(CF)N1CC=C(c2cccc(Cl)c2NC(=O)N2CCC(C)(c3cc(C4CC4)on3)CC2)CC1 (centres unmarked) [Example 141, N-{2-chloro-6-[1-(1-fluoropropan-2-yl)-1,2,3,6-tetrahydropyridin-4-yl]phenyl}-4-(5-cyclopropyl-1,2-oxazol-3-yl)-4-methylpiperidine-1-carboxamide] | 121 |
| CC(CF)N1CC=C(c2cccc(Cl)c2NC(=O)N2CCC(C)(c3noc(C4CC4)n3)CC2)CC1 (centres unmarked) [Example 142, N-{2-chloro-6-[1-(1-fluoropropan-2-yl)-1,2,3,6-tetrahydropyridin-4-yl]phenyl}-4-(5-cyclopropyl-1,2,4-oxadiazol-3-yl)-4-methylpiperidine-1-carboxamide] | 130 |
| CC(CF)N1CCC(c2cccc(Cl)c2NC(=O)N2CCC(C)(c3noc(C4CC4)n3)CC2)CC1 (centres unmarked) [Example 143, N-{2-chloro-6-[1-(1-fluoropropan-2-yl)piperidin-4-yl]phenyl}-4-(5-cyclopropyl-1,2,4-oxadiazol-3-yl)-4-methylpiperidine-1-carboxamide] | 109 |
| CC(C)N1CC=C(c2cccc(Cl)c2NC(=O)N2CCC(C)(c3cc(C4CC4)on3)CC2)CC1 [Example 144, N-{2-chloro-6-[1-(propan-2-yl)-1,2,3,6-tetrahydropyridin-4-yl]phenyl}-4-(5-cyclopropyl-1,2-oxazol-3-yl)-4-methylpiperidine-1-carboxamide] | 143 |
| CC(C)N1CCC(c2cccc(Cl)c2NC(=O)N2CCC(C)(c3noc(C4CC4)n3)CC2)CC1 [Example 145, N-{2-chloro-6-[1-(propan-2-yl)piperidin-4-yl]phenyl}-4-(5-cyclopropyl-1,2,4-oxadiazol-3-yl)-4-methylpiperidine-1-carboxamide] | 148 |
| CC1(c2noc(C3CC3)n2)CCN(C(=O)Nc2c(Cl)cccc2C2CCN(C3COC3)CC2)CC1 [Example 146, N-{2-chloro-6-[1-(oxetan-3-yl)piperidin-4-yl]phenyl}-4-(5-cyclopropyl-1,2,4-oxadiazol-3-yl)-4-methylpiperidine-1-carboxamide] | 104 |
| Cc1ccc(C2(C)CCN(C(=O)Nc3c(Cl)cccc3C3=CCN(C(C)C)CC3)CC2)cc1 [Example 147, N-{2-chloro-6-[1-(propan-2-yl)-1,2,3,6-tetrahydropyridin-4-yl]phenyl}-4-methyl-4-(4-methylphenyl)piperidine-1-carboxamide] | 167 |
| Cc1ccc(C2(C)CCN(C(=O)Nc3c(Cl)cccc3C3CCN(C(C)C)CC3)CC2)cc1 [Example 148, N-{2-chloro-6-[1-(propan-2-yl)piperidin-4-yl]phenyl}-4-methyl-4-(4-methylphenyl)piperidine-1-carboxamide] | 176 |
| CCN1C[C@@H]2C[C@H]1CN2c1cccc(F)c1NC(=O)N1CCC(C)(c2noc(C3CC3)n2)CC1 [Example 149, 4-(5-cyclopropyl-1,2,4-oxadiazol-3-yl)-N-{2-[(1S,4S)-5-ethyl-2,5-diazabicyclo[2.2.1]heptan-2-yl]-6-fluorophenyl}-4-methylpiperidine-1-carboxamide] | 146 |
| Cc1ccc(C2CCN(C(=O)Nc3c(F)cccc3N3C[C@@H]4C[C@H]3CN4C(C)C)CC2)cc1 [Example 150, N-{2-fluoro-6-[(1S,4S)-5-(propan-2-yl)-2,5-diazabicyclo[2.2.1]heptan-2-yl]phenyl}-4-(4-methylphenyl)piperidine-1-carboxamide] | 116 |
| Cc1ccc(C2CCN(C(=O)Nc3c(F)cccc3N3C[C@H]4C[C@@H]3CN4C(C)C)CC2)cc1 [Example 151, N-{2-fluoro-6-[(1R,4R)-5-(propan-2-yl)-2,5-diazabicyclo[2.2.1]heptan-2-yl]phenyl}-4-(4-methylphenyl)piperidine-1-carboxamide] | 97 |
| CC(C)N1C[C@H]2C[C@@H]1CN2c1cccc(F)c1NC(=O)N1CCC(C)(c2noc(C3CC3)n2)CC1 [Example 152, 4-(5-cyclopropyl-1,2,4-oxadiazol-3-yl)-N-{2-fluoro-6-[(1R,4R)-5-(propan-2-yl)-2,5-diazabicyclo[2.2.1]heptan-2-yl]phenyl}-4-methylpiperidine-1-carboxamide] | 136 |
| CCN1CCCN(c2ccccc2NC(=O)N2CCC(c3ccc(C)cc3)CC2)CC1 [Example 153, N-[2-(4-ethyl-1,4-diazepan-1-yl)phenyl]-4-(4-methylphenyl)piperidine-1-carboxamide] | 54 |
| Cc1ccc(C2CCN(C(=O)Nc3c(F)cccc3N3CC4CCC(C3)N4C(C)C)CC2)cc1 [Example 154, N-{2-fluoro-6-[8-(propan-2-yl)-3,8-diazabicyclo[3.2.1]octan-3-yl]phenyl}-4-(4-methylphenyl)piperidine-1-carboxamide] | 40 |
| CC(C)N1C2CCC1CN(c1cccc(F)c1NC(=O)N1CCC(C)(c3noc(C4CC4)n3)CC1)C2 [Example 155, 4-(5-cyclopropyl-1,2,4-oxadiazol-3-yl)-N-{2-fluoro-6-[8-(propan-2-yl)-3,8-diazabicyclo[3.2.1]octan-3-yl]phenyl}-4-methylpiperidine-1-carboxamide] | 55 |
| CCN1CCCN(c2ccccc2NC(=O)N2CCC(C)(c3noc(C4CC4)n3)CC2)CC1 [Example 156, 4-(5-cyclopropyl-1,2,4-oxadiazol-3-yl)-N-[2-(4-ethyl-1,4-diazepan-1-yl)phenyl]-4-methylpiperidine-1-carboxamide] | 38 |
| CCCN1CCCN(c2ccccc2NC(=O)N2CCC(C)(c3noc(C4CC4)n3)CC2)CC1 [Example 157, 4-(5-cyclopropyl-1,2,4-oxadiazol-3-yl)-4-methyl-N-[2-(4-propyl-1,4-diazepan-1-yl)phenyl]piperidine-1-carboxamide] | 94 |
| CC(C)N1CC=C(c2cccc(Cl)c2NC(=O)N2CCC(C)(C#N)CC2)CC1 [Example 158, N-{2-chloro-6-[1-(propan-2-yl)-1,2,3,6-tetrahydropyridin-4-yl]phenyl}-4-cyano-4-methylpiperidine-1-carboxamide] | 133 |
| CC1(C#N)CCN(C(=O)Nc2c(Cl)cccc2C2=CCN(C3CCC3)CC2)CC1 [Example 159, N-[2-chloro-6-(1-cyclobutyl-1,2,3,6-tetrahydropyridin-4-yl)phenyl]-4-cyano-4-methylpiperidine-1-carboxamide] | 150 |
| CC(C)N1CC(Oc2cccc(Cl)c2NC(=O)N2CCC(C)(c3noc(C4CC4)n3)CC2)C1 [Example 160, N-(2-chloro-6-{[1-(propan-2-yl)azetidin-3-yl]oxy}phenyl)-4-(5-cyclopropyl-1,2,4-oxadiazol-3-yl)-4-methylpiperidine-1-carboxamide] | 141 |
| Cc1ccc(C2CCN(C(=O)Nc3c(F)cccc3N3C4CCC3CN(C(C)C)C4)CC2)cc1 [Example 161, N-{2-Fluoro-6-[3-(propan-2-yl)-3,8-diazabicyclo[3.2.1]octan-8-yl]phenyl}-4-(4-methylphenyl)piperidine-1-carboxamide] | 90 |
| Cc1noc(C2(C)CCN(C(=O)Nc3ccccc3N3CCN(C(C)C)CC3)CC2)n1 [Example 162, 4-Methyl-4-(3-methyl-1,2,4-oxadiazol-5-yl)-N-{2-[4-(propan-2-yl)piperazin-1-yl]phenyl}piperidine-1-carboxamide] | 100 |
| CC(C)c1noc(C2(C)CCN(C(=O)Nc3ccccc3N3CCN(C(C)C)CC3)CC2)n1.Cl [Example 163, 4-methyl-4-[3-(propan-2-yl)-1,2,4-oxadiazol-5-yl]-N-{2-[4-(propan-2-yl)piperazin-1-yl]phenyl}piperidine-1-carboxamide hydrochloride] | 110 |
| Cc1noc(C2(F)CCN(C(=O)Nc3ccccc3N3CCN(C(C)C)CC3)CC2)n1 [Example 164, 4-fluoro-4-(3-methl-1,2,4-oxadiazol-5-yl)-N-{2-[4-(propan-2-yl)piperazin-1-yl]phenyl}piperidine-1-carboxamide] | 128 |
| Cc1nnc(C2(C)CCN(C(=O)Nc3ccccc3N3CCN(C(C)C)CC3)CC2)o1 [Example 165, 4-Methyl-4-(5-methyl-1,3,4-oxadiazol-2-yl)-N-{2-[4-(propan-2-yl)piperazin-1-yl]phenyl}piperidine-1-carboxamide] | 96 |
| Cc1ccc(C2CCN(C(=O)Nc3ccccc3[C@@H]3CN[C@@H](C(C)C)CO3)CC2)cc1 [Example 166, 4-(4-Methylphenyl)-N-{2-[(2R,5S)-5-(propan-2-yl)morpholin-2-yl]phenyl}piperidine-1-carboxamide] | 72 |
